# Data reported in patent US6642201B1, “Use of a dipeptide for stimulating repair processes” (priority 1998, dated 2003).
# Marks after values point to notes of the source that are not given here. Where a SMILES comes first, the peptide text is derived from it.
# Columns and labels:
# [1] = tested on: inflammation of salivary glands and sialolithic disease; assay: Clinical treatment of inflammation of salivary glands and sialolithic disease; format: in vivo, patients; details: 1 μkg i.m. daily for 5 days
# Source text: 45 patients were being observed. Of these, 27 people had inflammations of the salivary glands, 4 of whom had parotitis. 18 people suffered sialolithic disease of the submandibular gland. The average age of the patients was 35-40. All the patients with the sialolithic disease had the stones extracted. 30 patients (15 of them had inflammation of the salivary gland and the other 15 had sialolithic disease) underwent daily intramuscular injections of L-Lys-L-Glu dipeptide 1 μkg. for 5 days.
# The patients of the control group underwent standard treatment: antibacterial, desensitization therapy, iodine-dimexid dressings, physical therapy (ultrasonics, 5-10% potassium iodide electrotherapy on the gland area), local treatment (washing the glands with the solution of antiseptics and antibiotics).
# white outbred mice = assay: Sub-acute toxicity, daily intramuscular administration for 90 days; format: in vivo; details: i.m. daily 0.3, 1, 3 mg/kg for 90 days; doses exceeding therapeutic 100-1000 times
# Description: The study of sub-acute toxicity of L-Lys-L-Glu dipeptide is carried out on 60 white outbred mice with body weight […]. The animals of experimental groups were exposed daily to a single administration of the drug intramuscularly for 90 days in doses 1 mg/kg, 0.3 mg/kg, 3 mg/kg in 0.5 ml of sodium chloride solution. The animals of control groups were administered with sodium chloride solution in the same quantity.
# During the whole period of Investigation the animals were under daily control. There was monitored animal behavior, as well as chow and water consumption, condition of hairy and mucous surfaces. The animals were weighed weekly. Morphological composition and properties of peripheral blood were studied prior to and an the 30th, 60th, and 90th day of drug administration. Biochemical and coagulologic indices of the blood were studied upon experiment completion.
# [2] = tested on: sluggish-granulating wounds after surgical treatment for cancer; assay: Clinical complex treatment of cancer patients with post-operative complications; format: in vivo
# Description: In the pre-operation period, the patients underwent a radical-scheme, radiation therapy employing large fields of complex configuration on the linear electron accelerator (its power is 4,3 Mev) and gamma-therapy device “Rokus-M” in the brake mode. In particular cases, one of the components of the combined treatment was chemotherapy.
# Beginning from the third day after the operation, 1 μkg of L-Lys-L-Glu dipeptide was injected intramuscularly daily during 10 days.
# white outbred male mice = assay: Acute toxicity according to Kerber, single intramuscular administration; format: in vivo
# Description: The study of the general toxic activity of dipeptide L-Lys-L-Glu was conducted in compliance with “The rules of pre-clinical estimation of safety of pharmacological Substances (GLP)”—
# The purpose of the study consisted of the identification of tolerable toxic doses of the drug, estimation of stage and character of pathological alterations in various organs and systems of the organism and determination of correlation between toxic effect related to dose and duration of drug application.
# The estimation of acute toxicity of dipeptide L-Lys-L-Glu was conducted according to Kerber. The study was carried out on 66 white outbred male mice with body weight 20-23 g, kept under standard regimen and fed with standard chow in the vivarium. The animals were divided at random into 6 equal groups of 11 mice each. The animals were exposed to single administration of the drug intramuscularly, 0.25 ml in doses 1 mg/kg, 2 mg/kg, 3 mg/kg, 4 mg/kg, 5 mg/kg, several thousand times exceeding therapeutic dose recommended for clinical trial. Control animals were administered sodium chloride solution in the same amount.
# [3] = tested on: sluggish-granulating wounds and phlegmon of the maxillofacial zone; assay: Clinical complex treatment of pyo-inflammatory diseases of different localization; format: in vivo; details: patients, 1 μkg i.m. every day during ten days
# Description: 1 μkg of the preparation was injected intramuscularly, every day during ten days. Effectiveness of the treatment was evaluated in dynamics according to the changes in activity of wound enzymes and time of healing.
# [4] = tested on: purulent incised crushed wounds of the femural soft tissues; assay: Healing of purulent incised crushed wounds of the soft tissues; format: in vivo, shinshilla rabbits; set-up: key: 1 point - absent; 2 points - single (traces); 3 points - few; 4 points - diffuse (moderately); 5 points - many-;; 6 points - very many; details: rabbits, 1 μkg i.m. daily 5 days
# Source text: The efficacy of L-Lys-L-Glu dipeptide was estimated on the model of purulent incised crushed wounds of the femural soft tissues in shinshilla rabbits of both sexes with body weight 2-3 kg. Therefore, the rabbits underwent shaving in the area of femural soft tissues with subsequent incision 5 cm long and 2 sm deep. Soft tissues (muscles, subcutaneous fat) were crushed with Kocher 's forcepts and infected with the pathogenic mixture Staphylococcus aureus, strain 186. Afterwards, the wound was sutured. In 72 hours the sutures were lifted; and the wound was treated with 3% solution of hydrogen peroxide.
# The animals of experimental group were injected intramuscularly every day for five days with dipeptide L-Lys-L-Glu in a single dose 1 μkg per injection. Control rabbits were injected with sodium chloride solution according to the same scheme. In the process of treatment the wounds were treated with antiseptic remedies for external use.
# The estimation of L-Lys-L-Glu dipeptide efficacy in the dynamics of the inflammatory process regression was based on the terms of crust rejection and wound clearance from the pyo-necrotic mass, and appearance of the granular tissue in the wound and beginning of edge epithelization. […] The activity of tissue enzymes was also estimated (5,6,7).
# [5] = patients with sialolithic disease
structure (smiles),measurement,setting,value
"NCCCC[C@H](N)C(=O)N[C@@H](CCC(=O)O)C(=O)O [L-Lys-L-Glu dipeptide, L-lysil-L-glutamic acid] (H-Lys-Glu-OH)",pains in the gland and discharge of pus,[1]; patients with inflammation of the salivary gland,"on the fourth-fifth day after the treatment, stopped having pains in the gland and the discharge of pus from the gland ducts"
same,discharge of pus from the gland ducts,[1]; [5],stopped having the discharge of pus from the gland ducts
same,swelling and infiltration of soft tissues and mucous membrane of the mouth cavity,[1]; [5],resolved on the third fourth day after the operation
same,period of treatment,[1]; patients,shortened the period of treatment
same,"side effects, sub-acute toxicity",white outbred mice,absence of side effects
same,edema and pain in the wound area,[2]; 1 μkg i.m. daily during 10 days from third day after operation,helped to reduce edema and pain in the wound area
same,time of treatment,[2]; complex treatment,reduces the time of their treatment
same,toxic effects,white outbred male mice; doses several thousand times exceeding the therapeutic,does not induce any toxic effects
same,"changes in general state, behavior, locomotor activity, integument, physiological discharges","white outbred male mice; mice, single i.m. 1-5 mg/kg, 72 hours and 14 days","No changes in the general state, behavior, locomotor activity, hairy or skin integument or physiological discharges"
same,animal deaths,"white outbred male mice; mice, single i.m. 1-5 mg/kg, in 72 hours and in 14 days",none of the animals in either of the groups died
same,activity of wound enzymes,[3],increased the activity of wound ferments in the first phase of the wound process
same,clearance of the wounds from necrotic tissues,[3],accelerate clearance of the wounds from necrotic tissues
same,treatment period,[3],reduction of the treatment period
same,Acid phosphotase in histiocytes,[4]; day 6,5*
same,Alcaline phosphotase in vessels,[4]; day 14,5
same,Acid phosphotase in histiocytes,[4]; day 21,5
same,Alcaline phosphotase in leukocytes,[4]; day 21,5
same,Alcaline phosphotase in vessels,[4]; day 21,5*
same,Acid phosphotase in histiocytes,[4]; day 28,5*
same,Acid phosphotase in histiocytes,[4]; day 40,5*
same,Alcaline phosphotase in leukocytes,[4]; day 40,5
